Conditions: 343.15 K, Liquid, Vibrating tube method

CCCC(=O)OCC(COC(=O)CCC)(COC(=O)CCC)COC(=O)CCC [pentaerythritol tetrabutyrate]
Conditions	mass density [kg/m3]
14185 kPa	1019
14223 kPa	1019.1
14263 kPa	1019
14296 kPa	1019.1
14334 kPa	1019.1
14374 kPa	1019.1
14412 kPa	1019.1
14452 kPa	1019.2
14485 kPa	1019.2
14525 kPa	1019.1
14564 kPa	1019.1
14606 kPa	1019.2
14639 kPa	1019.3
14680 kPa	1019.3
14721 kPa	1019.3
14764 kPa	1019.4
14805 kPa	1019.4
14840 kPa	1019.4
15093 kPa	1019.6
15139 kPa	1019.6
15180 kPa	1019.6
15211 kPa	1019.8
15248 kPa	1019.7
15286 kPa	1019.7
15317 kPa	1019.7
15355 kPa	1019.8
15392 kPa	1019.8
15430 kPa	1019.8
15469 kPa	1019.9
15538 kPa	1019.9
15616 kPa	1020
15655 kPa	1019.9
15688 kPa	1020.1
15727 kPa	1020.1
15769 kPa	1020
15802 kPa	1020.2
15842 kPa	1020.2
15881 kPa	1020.2
15922 kPa	1020.2
15956 kPa	1020.2
15997 kPa	1020.2
16038 kPa	1020.3
16079 kPa	1020.2
16120 kPa	1020.4
16154 kPa	1020.3
16195 kPa	1020.4
16239 kPa	1020.3
16276 kPa	1020.5
16318 kPa	1020.4
16360 kPa	1020.5
16403 kPa	1020.5
16446 kPa	1020.6
16489 kPa	1020.5
16526 kPa	1020.6
16570 kPa	1020.6
16614 kPa	1020.7
16659 kPa	1020.6
16696 kPa	1020.7
16741 kPa	1020.8
16787 kPa	1020.9
16833 kPa	1020.9
16879 kPa	1020.9
16918 kPa	1021
16964 kPa	1021
17012 kPa	1020.9
17052 kPa	1021
17100 kPa	1021.1
17143 kPa	1021.2
17186 kPa	1021
17229 kPa	1021.2
17265 kPa	1021.1
17310 kPa	1021.1
17355 kPa	1021.3
17393 kPa	1021.2
17439 kPa	1021.3
17485 kPa	1021.2
17525 kPa	1021.4
17560 kPa	1021.3
17590 kPa	1021.4
17624 kPa	1021.4
17660 kPa	1021.5
17694 kPa	1021.4
17730 kPa	1021.5
17760 kPa	1021.5
17796 kPa	1021.6
17870 kPa	1021.5
17900 kPa	1021.5
17935 kPa	1021.6
17972 kPa	1021.8
18009 kPa	1021.6
18039 kPa	1021.7
18076 kPa	1021.8
18113 kPa	1021.7
18150 kPa	1021.8
18187 kPa	1021.7
18218 kPa	1021.8
18256 kPa	1021.9
18294 kPa	1021.8
18332 kPa	1022
18370 kPa	1021.9
18402 kPa	1021.9
18441 kPa	1022
18479 kPa	1022
18518 kPa	1022.1
18552 kPa	1022.2
18590 kPa	1022.1
18630 kPa	1022.1
18669 kPa	1022.1
18703 kPa	1022.1
18742 kPa	1022.2
18784 kPa	1022.2
18824 kPa	1022.3
18864 kPa	1022.3
18898 kPa	1022.2
18938 kPa	1022.4
18978 kPa	1022.3
19020 kPa	1022.4
19054 kPa	1022.4
19096 kPa	1022.5
19138 kPa	1022.5
19216 kPa	1022.5
19297 kPa	1022.6
19340 kPa	1022.6
19382 kPa	1022.6
19425 kPa	1022.6
19468 kPa	1022.7
19504 kPa	1022.8
19548 kPa	1022.7
19591 kPa	1022.9
19634 kPa	1022.7
19679 kPa	1022.9
19717 kPa	1022.8
19761 kPa	1022.8
19809 kPa	1022.9
19854 kPa	1022.9
19892 kPa	1023
19938 kPa	1023
19984 kPa	1023.1
20022 kPa	1023.2
20068 kPa	1023.1
20115 kPa	1023.2
20161 kPa	1023.1
20200 kPa	1023.2
20247 kPa	1023.1
20294 kPa	1023.1
20341 kPa	1023.3

Reference: the NIST ThermoML archive (doi:10.1021/je060271a)
